Values quoted from earlier work as cited in patent US5811459A, “Ortho substituted aromatic compounds useful as antagonists of the pain enhancing effects of E-type prostaglandins” (Zeneca Limited, priority 1994, dated 1998).

What was measured:
[1] = test system: guinea pig ileum or dog fundus; conditions: some tissues such as guinea pig ileum or dog fundus
[2] = test system: cat trachea or chick ileum; conditions: other tissues such as the cat trachea or chick ileum

SMILES: CC(=O)NNC(=O)N1Cc2ccccc2Oc2ccc(Cl)cc21 [SC-19220]
- block of the effect of PGE2 [1]: blocks the effect of PGE2
- block of the effect of PGE2 [2]: not on other tissues
